Results on 6 compounds are retold here after patent publication US20100190794A1, “Herbicidally Active Composition” (BASF SE, priority 2007, published 2010).

Assay in all cases: greenhouse test, pre-emergence treatment
In one assay the test system is SETLU. The class given is in vivo, Setaria glauca. To be noted: for Herbicidal action in % after 20 days against SETLU: Use Example 16. From the text: (§1) The culture containers used were plastic pots containing loamy sand with approximately 3.0% of humus as substrate. The seeds of the test plants were sown separately for each species.
(§2) For the pre-emergence treatment, the active compounds, suspended or emulsified in water, were applied directly after sowing by means of finely distributing nozzles. The containers were irrigated gently to promote germination and growth and subsequently covered with transparent plastic hoods until the plants had rooted. This cover caused uniform germination of the test plants unless this was adversely affected by the active compounds.
(§3) Depending on the species, the plants were kept at 10-25° C. and 20-35° C., respectively. The test period extended over 2 to 4 weeks. During this time, the plants were tended and their response to the individual treatments was evaluated.
(§4) Evaluation was carried out using a scale from 0 to 100. 100 means no emergence of the plants, or complete destruction of at least the above-ground parts, and 0 means no damage or normal course of growth. Good herbicidal activity is given at values of at least 70, and very good herbicidal activity is given at values of at least 85.
(§5) The respective stated components A and B, and if appropriate, C were formulated as a 5% by weight or 10% by weight strength emulsion concentrate or a commercially available formulation of component B was used and, with addition of the amount of solvent system, introduced into the spray liquor used for applying the active compound. In the examples, the solvent used was water.
(§6) The test period extended over 20 or 21 days. During this time, the plants were tended, and their reactions to the treatment with active compound was monitored.
(§7) What was evaluated was the damage by the chemical compositions using a scale of from 0 to 100%, in comparison to the untreated control plants. 0 means no damage, and 100 means complete destruction of the plants.
(§8) In the examples below, using the method of S. R. Colby (1967) “Calculating synergistic and antagonistic responses of herbicide combinations”, Weeds 15, p. 22 ff., the value E, which is expected if the activity of the individual active compounds is only additive, was calculated.
(§9) where X=percent activity using active compound A at an application rate a; Y=percent activity using active compound B at an application rate b; E=expected activity (in %) by A+B at application rates a+b.
(§10) If the value found in experiments is higher than the value E calculated according to Colby, a synergistic effect is present.

In the next assay the test system is SETFA. It is filed as in vivo, Setaria faberi. To be noted: Use Example 19.
From the text: as §1, §2, §3, §4, §5, §6, §7, §8, §9, §10

For the next assay, the system named is DIGSA. The class given is in vivo, Digitaria sanguinalis.
From the text: as §1, §2, §3, §4, §5, §6, §7, §8, §9, §10

The next assay concerns BRAPL. It is filed as in vivo, Brachiaria plantaginea.
From the text: as §1, §2, §3, §4, §5, §6, §7, §8, §9, §10

A further assay relates to SOLNI. The class given is in vivo, Solanum nigrum L. The settings on record: Use Example 19.
From the text: as §1, §2, §3, §4, §5, §6, §7, §8, §9, §10

Another assay concerns PHACA. The class given is in vivo, Phalaris canariensis.
From the text: as §1, §2, §3, §4, §5, §6, §7, §8, §9, §10

The subject of another assay is POAAN. It is filed as in vivo, Poa annua. To be noted: 25 g/ha a.s., Use Example 7.
From the text: as §1, §2, §3, §4, §5, §6, §7, §8, §9, §10

The next assay has as its system LAMPU. The class given is in vivo, Lamium purpureum. The settings on record: 25 g/ha a.s., Use Example 20.
From the text: as §1, §2, §3, §4, §5, §6, §7, §8, §9, §10

The test system of the next assay is APESV. It is filed as in vivo, Apera spica-venti. The settings on record: 25 g/ha a.s., Use Example 20.
From the text: as §1, §2, §3, §4, §5, §6, §7, §8, §9, §10

The test system of the next assay is ALOMY. It is filed as in vivo, Alopecurus myosuroides.
From the text: as §1, §2, §3, §4, §5, §6, §7, §8, §9, §10

A further assay deals with MATIN. It is filed as in vivo, Matricaria inodora. To be noted: 1000 g/ha a.s., Use Example 2.
From the text: as §1, §2, §3, §4, §5, §6, §7, §8, §9, §10

In the next assay the test system is ECHCG. It is filed as in vivo, Echinochloa crus-galli. To be noted: 1000 g/ha a.s., Use Example 2.
From the text: as §1, §2, §3, §4, §5, §6, §7, §8, §9, §10

The subject of another assay is STEME. It is filed as in vivo, Stellaria media. To be noted: 1000 g/ha a.s., Use Example 2.
From the text: as §1, §2, §3, §4, §5, §6, §7, §8, §9, §10

The next assay has as its system CCHEC. It is filed as in vivo, Cenchrus echinatus. The settings on record: Use Example 16.
From the text: as §1, §2, §3, §4, §5, §6, §7, §8, §9, §10

Another assay has as its system LOLMU. The class given is in vivo, Lolium multiflorum. The settings on record: Use Example 1.
From the text: as §1, §2, §3, §4, §5, §6, §7, §8, §9, §10

In the case of `CS(=O)(=O)c1cc(C(F)(F)F)ccc1C(=O)c1cnoc1C1CC1` [Isoxaflutol, Isoxaflutole], in the assay on SETLU (25 g/ha a.s., Use Example 9), the “Herbicidal action in % after 21 days against SETLU” value was 75%. Moreover, the figures for the “Herbicidal action in % after 20 days against SETFA” value with SETFA (13 g/ha a.s.) and in the assay on SETFA (25 g/ha a.s.) were 40% and 55%, respectively. For the same compound, the “Herbicidal action in % after 20 days against DIGSA” value in the assay with DIGSA (13 g/ha a.s., Use Example 19) was 75%; in the assay with DIGSA (25 g/ha a.s., Use Example 19), 95%. The “Herbicidal action in % after 21 days against DIGSA” value in the assay with DIGSA (25 g/ha a.s., Use Example 9) was found to be 98%. Further, the “Herbicidal action in % after 20 days against BRAPL” value in the assay on BRAPL (13 g/ha a.s., Use Example 19) worked out at 75%; in the assay with BRAPL (25 g/ha a.s., Use Example 19), 80%. The “Herbicidal action in % after 21 days against BRAPL” value in the assay on BRAPL (25 g/ha a.s., Use Example 9) worked out at 90%. For the same compound, the “Herbicidal action in % after 20 days against SOLNI” value with SOLNI (13 g/ha a.s.) is 85%; in the assay with SOLNI (25 g/ha a.s.) it was 98%.

For `O=C(Nc1ccc(F)cc1)c1cccc(Oc2cccc(C(F)(F)F)c2)n1` [Picolinafen, reference compound], the “Herbicidal action in % after 20 days against PHACA” value in the assay with PHACA (25 g/ha a.s., Use Example 20) was found to be 0%. In addition, in the assay with POAAN, the “Herbicidal action in % after 20 days against POAAN” value worked out at 0%. Also, the “Herbicidal action in % after 20 days against LAMPU” value in the assay on LAMPU was 0%. For the same compound, the “Herbicidal action in % after 20 days against APESV” value with APESV is recorded as 60%. In addition, the “Herbicidal action in % after 20 days against ALOMY” value in the assay on ALOMY (25 g/ha a.s., Use Example 7) is given as 0%.

`CCCN(CCC)C(=O)SCc1ccccc1` [Prosulfocarb, reference compound]: the “Herbicidal action in % after 20 days against MATIN” value in the assay on MATIN was 30%. Also, in the assay with ECHCG, the “Herbicidal action in % after 20 days against ECHCG” value was determined as 40%. For the same compound, the “Herbicidal action in % after 20 days against STEME” value in the assay on STEME worked out at 80%. Besides, the “Herbicidal action in % after 20 days against ALOMY” value in the assay on ALOMY (1000 g/ha a.s., Use Example 2) amounted to 70%.

For the compound `O=C(O)c1c(Cl)ccc2cc(Cl)cnc12` [Quinclorac], the “Herbicidal action in % after 20 days against SETLU” value with SETLU (62.5 g/ha a.s.) turned out to be 50%; in the assay with SETLU (125 g/ha a.s.), 85%. Also, the “Herbicidal action in % after 20 days against CCHEC” value in the assay with CCHEC (62.5 g/ha a.s.) is listed as 0%; with CCHEC (125 g/ha a.s.) it was 20%. The “Herbicidal action in % after 20 days against BRAPL” value is recorded as 0% in the assay with BRAPL (62.5 g/ha a.s., Use Example 16) and 25% in the assay on BRAPL (125 g/ha a.s., Use Example 16).

For the compound `CCNc1nc(Cl)nc(NC(C)(C)C)n1` [Terbuthylazine, reference compound], the “Herbicidal action in % after 20 days against DIGSA” value in the assay on DIGSA (250 g/ha a.s., Use Example 5) amounted to 35%. In the assay with BRAPL (250 g/ha a.s., Use Example 5), the “Herbicidal action in % after 20 days against BRAPL” value is given as 15%.

As for `CC(C)N(C(=O)SCC(Cl)=C(Cl)Cl)C(C)C` [Triallate, reference compound], the “Herbicidal action in % after 20 days against PHACA” value turned out to be 40% in the assay with PHACA (300 g/ha a.s., Use Example 1) and 50% with PHACA (600 g/ha a.s., Use Example 1). The “Herbicidal action in % after 20 days against LOLMU” value turned out to be 60% with LOLMU (300 g/ha a.s.) and 80% with LOLMU (600 g/ha a.s.).
